Tested on: hyperpigmented spots
Test: In vivo testing for hyperpigmented spot reduction and melanin evenness (9 week split face study)
Parameters: species or system humans
Details: for Melanin Evenness versus Vehicle / NC2 SAF (spot area fraction) versus Vehicle: vehicle+0.55% FSF or vehicle+5% Niacinamide, twice daily, split face
Method: A 9 week in-vivo study was conducted using a round robin, vehicle controlled, split face design including a 1 week normalization period with 270 subjects. The 270 subjects were screened according to inclusion/exclusion criteria which included the following:
Has hyperpigmented spots around cheek and/or periorbital area on both sides of the face.
Has at least 1 hyperpigmented spot of 8-10 mm diameter, 4 spots of 4-6 mm or 10 spots of 2-3 mm diameter (sun spots, freckles, or melasma spots) or equivalent spot area in the cheek area on each side of their face.
Is willing to refrain from sun exposure by using supplied UV lotion and physical UV blocks, such as a hat, to avoid facial sunburn, tanning or wind burn.
Has been diagnosed as having atopy, eczema, psoriasis, or other chronic skin diseases.
Has obvious signs of facial skin disease (e.g., more than 5 pimples, areas of red scaling skin, superficial thin blood vessels, etc.).
Has significant areas of discoloration or scarring on the face.
Has more than 3 prominent moles (<3 mm) on the face.
Two hundred and seventy subjects were recruited for the study. […] Each subject received two coded test formulations for twice daily application to each half of the face. Images of the facial treatment sites were captured at baseline (week 0), and after 4 and 8 weeks of treatment and analyzed for changes to skin color and spot size and color. The product formulations included a vehicle control, the vehicle+0.55% FSF, and the vehicle+5% vitamin B3 compound (Niacinamide).
Noncontact spectrophotometric intracutaneous analysis (SiaScopy, Astron Clinica, UK) was used to collect and analyze the subject images. The method used a digital camera (e.g., Fuji S2 digital SLR) as a […] and a flash lighting source (e.g., Sigma Super flash light source) to recover facial chromophore information. A cross polarized filter was placed in front of the camera and the lighting source to eliminate specular reflection.
Chromophore mapping of the concentration and distribution of eumelanin (melanin) and oxyhaemoglobin produces grayscale concentration maps of each of these chromophores. Image analysis software, such as Optimas 6.5, can be used to select a region of interest in each chromophore map from which mean grayscale values and spot area fraction are calculated. Spot area fraction refers to total area occupied by melanin spots as a percentage of the whole region of interest. A description of one type of chromophore mapping can be found in EP 1,810,614 and “The Distribution of Melanin in Skin Determined In Vivo”, British Journal of Dermatology, 2007, pp 620-628.
Table 15 summarizes the image analysis data, wherein SAF is the mean Spot Area Fraction and A SAF is the mean change in Spot Area Fraction from baseline (week 0).

With NC(=O)c1cccnc1 [Niacinamide] the “Melanin Evenness versus Vehicle” value (4 weeks) was “ns (ns = not significant (p > 0.3))”, the “NC2 SAF (spot area fraction) versus Vehicle” value (4 weeks) was “ns (ns = not significant (p > 0.3))” and the “Melanin Evenness versus Vehicle” value (8 weeks) was “Sig”. The “NC2 SAF (spot area fraction) versus Vehicle” value (8 weeks) was “Sig” and the “reduction of hyperpigmented spots (in words)” value (after 8 weeks, vehicle+0.55% FSF, vehicle+5% vitamin B3, control) was “best performer”.

Reference: patent US20120201768A1, “COSMETIC COMPOSITIONS COMPRISING FICUS SERUM FRACTION AND METHODS TO REDUCE THE APPEARANCE OF SKIN HYPERPIGMENTATION” (priority 2010, published 2012)
